According to patent publication US12209087B2, “AKT1 modulators” (Alterome Therapeutics, Inc., priority 2022, dated 2025):

Biological target: T1, full length AKT E17K (Homo sapiens, UniProt P31749, E17K)
T1 construct: host or cells: HEK-293 (ATCC CRL-1573)
Assay: NanoBRET Target Engagement (TE) Assay
Type: cell-based
Conditions: competitive tracer displacement in living cells, read-out: AKT1 E17K IC50
Method in brief: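 Compound and tracer incubated 2 h before luminescence at donor 450 nm and acceptor 600 nm, with extracellular signal inhibited. EC50 by sigmoidal variable-slope regression.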

T1 sequence (P31749 whole entry E17K): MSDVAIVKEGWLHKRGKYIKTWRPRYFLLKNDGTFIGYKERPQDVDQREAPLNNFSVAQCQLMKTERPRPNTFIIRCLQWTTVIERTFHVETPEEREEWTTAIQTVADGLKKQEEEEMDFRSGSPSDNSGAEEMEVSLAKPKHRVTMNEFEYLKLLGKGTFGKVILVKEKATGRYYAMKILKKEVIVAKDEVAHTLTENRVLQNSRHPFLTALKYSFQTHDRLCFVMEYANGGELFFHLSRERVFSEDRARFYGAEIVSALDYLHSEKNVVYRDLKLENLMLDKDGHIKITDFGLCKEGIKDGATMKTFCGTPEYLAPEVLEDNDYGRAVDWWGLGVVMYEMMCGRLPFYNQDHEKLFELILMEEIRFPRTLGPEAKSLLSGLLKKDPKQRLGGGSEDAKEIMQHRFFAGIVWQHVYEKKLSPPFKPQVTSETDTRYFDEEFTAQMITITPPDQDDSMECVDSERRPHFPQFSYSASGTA

| SMILES | IC50 [nM] |
| --- | --- |
| N#Cc1ccncc1C(=O)NCc1ccc(-n2c(-c3cccnc3N)nc3cccnc32)cc1 [Example 100, N-(4-(2-(2-Aminopyridin-3-yl)-3H-imidazo[4,5-b]pyridin-3-yl)benzyl)-4-cyanonicotinamide] | 600 to 10000 |
| N#Cc1cccnc1C(=O)NCc1ccc(-n2c(-c3cccnc3N)nc3cccnc32)cc1 [Example 101, N-(4-(2-(2-Aminopyridin-3-yl)-3H-imidazo[4,5-b]pyridin-3-yl)benzyl)-3-cyanopicolinamide] | 600 to 10000 |
| N#Cc1ccc(C(=O)N2CCN(Cc3ccc(-n4c(-c5cccnc5N)nc5cccnc54)cc3)CC2)cn1 [Example 102, 5-(4-(4-(2-(2-Aminopyridin-3-yl)-3H-imidazo[4,5-b]pyridin-3-yl)benzyl)piperazine-1-carbonyl)picolinonitrile] | 600 to 10000 |
| N#Cc1ccc(C(=O)NCc2ccc(-n3c(-c4cccnc4N)nc4cc(-c5ccccc5)cnc43)cc2)cn1 [Example 106, N-(4-(2-(2-Aminopyridin-3-yl)-6-phenyl-3H-imidazo[4,5-b]pyridin-3-yl)benzyl)-6-cyanonicotinamide] | 600 to 10000 |
| N#Cc1cc(C(=O)NC2CCN(Cc3ccc(-n4c(-c5cccnc5N)nc5cc(-c6ccccc6)cnc54)cc3)CC2)ccn1 [Example 107, N-(1-(4-(2-(2-Aminopyridin-3-yl)-6-phenyl-3H-imidazo[4,5-b]pyridin-3-yl)benzyl)piperidin-4-yl)-2-cyanoisonicotinamide] | 600 to 10000 |
| N#Cc1cccc(C(=O)NCc2ccc(-n3c(-c4cccnc4N)nc4cccnc43)cc2)n1 [Example 108, N-(4-(2-(2-Aminopyridin-3-yl)-3H-imidazo[4,5-b]pyridin-3-yl)benzyl)-6-cyanopicolinamide] | 600 to 10000 |
| N#Cc1cc(C(=O)N2CCN(Cc3ccc(-n4c(-c5cccnc5N)nc5cccnc54)cc3)CC2)ccn1 [Example 109, 4-(4-(4-(2-(2-Aminopyridin-3-yl)-3H-imidazo[4,5-b]pyridin-3-yl)benzyl)piperazine-1-carbonyl)picolinonitrile] | 600 to 10000 |
| N#Cc1cccnc1C(=O)N1CCN(Cc2ccc(-n3c(-c4cccnc4N)nc4cccnc43)cc2)CC1 [Example 110, 2-(4-(4-(2-(2-Aminopyridin-3-yl)-3H-imidazo[4,5-b]pyridin-3-yl)benzyl)piperazine-1-carbonyl)nicotinonitrile] | 600 to 10000 |
| N#Cc1ccc(C(=O)N2CCN(Cc3ccc(-n4c(-c5cccnc5N)nc5cc(-c6ccccc6)cnc54)cc3)CC2)cn1 [Example 111, 5-(4-(4-(2-(2-Aminopyridin-3-yl)-6-phenyl-3H-imidazo[4,5-b]pyridin-3-yl)benzyl)piperazine-1-carbonyl)picolinonitrile] | 600 to 10000 |
| N#Cc1cc(C(=O)NCc2ccc(-n3c(-c4cccnc4N)nc4cccnc43)cc2)ncn1 [Example 113, N-(4-(2-(2-Aminopyridin-3-yl)-3H-imidazo[4,5-b]pyridin-3-yl)benzyl)-6-cyanopyrimidine-4-carboxamide] | 600 to 10000 |
| N#Cc1cc(C(=O)N2CCN(Cc3ccc(-n4c(-c5cccnc5N)nc5cccnc54)cc3)CC2)ncn1 [Example 114, 6-(4-(4-(2-(2-Aminopyridin-3-yl)-3H-imidazo[4,5-b]pyridin-3-yl)benzyl)piperazine-1-carbonyl)pyrimidine-4-carbonitrile] | 60 to 600 |
| N#Cc1cc(C(=O)N2CCN(Cc3ccc(-n4c(-c5cccnc5N)nc5ccc(-c6ccccc6)nc54)cc3)CC2)ncn1 [Example 116, 6-(4-(4-(2-(2-Aminopyridin-3-yl)-5-phenyl-3H-imidazo[4,5-b]pyridin-3-yl)benzyl)piperazine-1-carbonyl)pyrimidine-4-carbonitrile] | < 15 |
| N#Cc1cc(C(=O)NC2CCN(Cc3ccc(-n4c(-c5cccnc5N)nc5ccc(-c6ccccc6)nc54)cc3)CC2)ncn1 [Example 117, N-(1-(4-(2-(2-aminopyridin-3-yl)-5-phenyl-3H-imidazo[4,5-b]pyridin-3-yl)benzyl)piperidin-4-yl)-6-cyanopyrimidine-4-carboxamide] | 15 to 60 |
| N#Cc1ncc(C(=O)NCc2ccc(-n3c(-c4cccnc4N)nc4cccnc43)cc2)cn1 [Example 119, N-(4-(2-(2-Aminopyridin-3-yl)-3H-imidazo[4,5-b]pyridin-3-yl)benzyl)-2-cyanopyrimidine-5-carboxamide] | 600 to 10000 |
| N#Cc1ccc(C(=O)NCc2ccc(-n3c(-c4cccnc4N)nc4cccnc43)cc2)cn1 [Example 121, N-(4-(2-(2-Aminopyridin-3-yl)-3H-imidazo[4,5-b]pyridin-3-yl)benzyl)-6-cyanonicotinamide] | 600 to 10000 |
| N#Cc1cc(C(=O)NCc2ccc(-n3c(-c4cccnc4N)nc4cccnc43)cc2)ccn1 [Example 122, N-(4-(2-(2-Aminopyridin-3-yl)-3H-imidazo[4,5-b]pyridin-3-yl)benzyl)-2-cyanoisonicotinamide] | 600 to 10000 |
| N#Cc1cncc(C(=O)NCc2ccc(-n3c(-c4cccnc4N)nc4cccnc43)cc2)c1 [Example 123, N-(4-(2-(2-Aminopyridin-3-yl)-3H-imidazo[4,5-b]pyridin-3-yl)benzyl)-5-cyanonicotinamide] | 600 to 10000 |

| SMILES | IC50 [nM] |
| --- | --- |
| N#Cc1ccc(C(=O)NCc2ccc(-n3c(-c4cccnc4N)nc4cccnc43)cc2)nc1 [Example 124, N-(4-(2-(2-Aminopyridin-3-yl)-3H-imidazo[4,5-b]pyridin-3-yl)benzyl)-5-cyanopicolinamide] | 600 to 10000 |
| N#Cc1cc(NCc2ccc(-n3c(-c4cccnc4N)nc4cccnc43)cc2)ccn1 [Example 127, 4-((4-(2-(2-Aminopyridin-3-yl)-3H-imidazo[4,5-b]pyridin-3-yl)benzyl)amino)picolinonitrile] | 600 to 10000 |
| N#Cc1ccc(NCc2ccc(-n3c(-c4cccnc4N)nc4cccnc43)cc2)cn1 [Example 128, 5-((4-(2-(2-Aminopyridin-3-yl)-3H-imidazo[4,5-b]pyridin-3-yl)benzyl)amino)picolinonitrile] | 600 to 10000 |
| N#Cc1cccc(NCc2ccc(-n3c(-c4cccnc4N)nc4cccnc43)cc2)n1 [Example 130, 6-((4-(2-(2-Aminopyridin-3-yl)-3H-imidazo[4,5-b]pyridin-3-yl)benzyl)amino)picolinonitrile] | 600 to 10000 |
| N#Cc1cncc(NCc2ccc(-n3c(-c4cccnc4N)nc4cccnc43)cc2)c1 [Example 131, 5-((4-(2-(2-Aminopyridin-3-yl)-3H-imidazo[4,5-b]pyridin-3-yl)benzyl)amino)nicotinonitrile] | 600 to 10000 |
| N#Cc1ccnc(NCc2ccc(-n3c(-c4cccnc4N)nc4cccnc43)cc2)c1 [Example 132, 2-((4-(2-(2-Aminopyridin-3-yl)-3H-imidazo[4,5-b]pyridin-3-yl)benzyl)amino)isonicotinonitrile] | 600 to 10000 |
| N#Cc1cncc(NCc2ccc(-n3c(-c4cccnc4N)nc4cccnc43)cc2)n1 [Example 133, 6-((4-(2-(2-Aminopyridin-3-yl)-3H-imidazo[4,5-b]pyridin-3-yl)benzyl)amino)pyrazine-2-carbonitrile] | 600 to 10000 |
| N#Cc1ccnc(NCc2ccc(-n3c(-c4cccnc4N)nc4cccnc43)cc2)n1 [Example 134, 2-((4-(2-(2-Aminopyridin-3-yl)-3H-imidazo[4,5-b]pyridin-3-yl)benzyl)amino)pyrimidine-4-carbonitrile] | 600 to 10000 |
| N#Cc1cc(NCc2ccc(-n3c(-c4cccnc4N)nc4cccnc43)cc2)ncn1 [Example 135, 6-((4-(2-(2-aminopyridin-3-yl)-3H-imidazo[4,5-b]pyridin-3-yl)benzyl)amino)pyrimidine-4-carbonitrile] | 600 to 10000 |
| N#Cc1cc(C(=O)N2CCN(Cc3ccc(-n4c(-c5cccnc5N)nc5cc(-c6ccccc6)cnc54)cc3)CC2)ccn1 [Example 137, 4-(4-(4-(2-(2-Aminopyridin-3-yl)-6-phenyl-3H-imidazo[4,5-b]pyridin-3-yl)benzyl)piperazine-1-carbonyl)picolinonitrile] | 600 to 10000 |
| N#Cc1cccc(C(=O)N2CCN(Cc3ccc(-n4c(-c5cccnc5N)nc5ccc(-c6ccccc6)nc54)cc3)CC2)n1 [Example 138, 6-(4-(4-(2-(2-Aminopyridin-3-yl)-5-phenyl-3H-imidazo[4,5-b]pyridin-3-yl)benzyl)piperazine-1-carbonyl)picolinonitrile] | 60 to 600 |
| N#Cc1cncc(C(=O)N2CCN(Cc3ccc(-n4c(-c5cccnc5N)nc5ccc(-c6ccccc6)nc54)cc3)CC2)c1 [Example 139, 5-(4-(4-(2-(2-Aminopyridin-3-yl)-5-phenyl-3H-imidazo[4,5-b]pyridin-3-yl)benzyl)piperazine-1-carbonyl)nicotinonitrile] | 600 to 10000 |
| N#Cc1ccnc(C(=O)N2CCN(Cc3ccc(-n4c(-c5cccnc5N)nc5ccc(-c6ccccc6)nc54)cc3)CC2)c1 [Example 140, 2-(4-(4-(2-(2-Aminopyridin-3-yl)-5-phenyl-3H-imidazo[4,5-b]pyridin-3-yl)benzyl)piperazine-1-carbonyl)isonicotinonitrile] | 60 to 600 |
| N#Cc1nccc(C(=O)N2CCN(Cc3ccc(-n4c(-c5cccnc5N)nc5ccc(-c6ccccc6)nc54)cc3)CC2)n1 [Example 141, 4-(4-(4-(2-(2-Aminopyridin-3-yl)-5-phenyl-3H-imidazo[4,5-b]pyridin-3-yl)benzyl)piperazine-1-carbonyl)pyrimidine-2-carbonitrile] | < 15 |
| N#Cc1ccc(C(=O)N2CCN(Cc3ccc(-n4c(-c5cccnc5N)nc5ccc(-c6ccccc6)nc54)cc3)CC2)nc1 [Example 142, 6-(4-(4-(2-(2-Aminopyridin-3-yl)-5-phenyl-3H-imidazo[4,5-b]pyridin-3-yl)benzyl)piperazine-1-carbonyl)nicotinonitrile] | 600 to 10000 |
| N#Cc1ncccc1C(=O)N1CCN(Cc2ccc(-n3c(-c4cccnc4N)nc4ccc(-c5ccccc5)nc43)cc2)CC1 [Example 143, 3-(4-(4-(2-(2-Aminopyridin-3-yl)-5-phenyl-3H-imidazo[4,5-b]pyridin-3-yl)benzyl)piperazine-1-carbonyl)picolinonitrile] | 60 to 600 |
